Data reported in US7906709B2, “Methods for breeding glyphosate resistant plants and compositions thereof” (priority 2006, dated 2011).

Tested on: Transformed Agrobacterium (glyphosate-resistant rigid ryegrass EPSPS)
Assay: Growth in M-9 media with glyphosate, transformed with resistant EPSPS
Type: cell-based, Agrobacterium tumefaciens
Details: 48 hours
Experimental: The level of glyphosate resistance is assayed from resistant rigid ryegrass EPSPS-expressing Agrobacterium that are transformed with a DNA construct encoding the resistant EPSPS enzyme (SEQ. ID. NO. 16).
An EPSPS gene (SEQ. ID. NO. 15) is obtained from glyphosate resistant rigid ryegrass. The EPSPS gene is ligated with the binary vector pFGC5941, a 11406 bp construct with kanamycin resistant gene, BAR gene as a selectable marker, and 35S Promoter. The ligation is cloned in pGEM vector and grown in LB broth. The plasmid from cloned pGEM is confirmed for the inserted EPSPS gene by PCR.
The confirmed plasmid is transformed into Agrobacterium tumefaciens by “freeze thaw technique” using liquid nitrogen. The transformed Agrobacterium is grown in LB plated and maintained 28° C. for 72 h. Some colonies are grown in LB broth for 24 h and tested for the inserted EPSPS gene by PCR. The confirmed Agrobacterium is grown in 50 mL LB broth for 24 h. The Agrobacterium is centrifuged at 5000×g for 10 min, and the pellets are diluted with 2 mL 1.0 M CaCl2. At the same time, a wild-type Agrobacterium is also grown and extracted similar to the transformed Agrobacterium. The Agrobacterium solutions (10 μL) are grown in 50 mL media containing 1×M-9 salt media (SIGMA), 20 mM glucose, 2 mM MgSO4, and glyphosate at 0, 0.25, 0.5, 0.75, 1.0, 1.5, and 2 mM.
The growth (indicated by Optical Density 600 nm) is measured after 48 hours.

O=C(O)CNCP(=O)(O)O [glyphosate, N-(phosphonomethyl) glycine]
Growth, OD 600 nm (glyphosate 0.25 mM): 0.632
Growth, Percent (glyphosate 0.25 mM): 98%
Growth, OD 600 nm (glyphosate 0.50 mM): 0.185
Growth, Percent (glyphosate 0.50 mM): 29%
Growth, OD 600 nm (glyphosate 0.75 mM): 0.097
Growth, Percent (glyphosate 0.75 mM): 15%
Growth, OD 600 nm (glyphosate 1.00 mM): 0.025
Growth, Percent (glyphosate 1.00 mM): 4%
Growth, OD 600 nm (glyphosate 1.50 mM): 0.024
Growth, Percent (glyphosate 1.50 mM): 4%
Growth, OD 600 nm (glyphosate 2.00 mM): 0.02
Growth, Percent (glyphosate 2.00 mM): 3%
